{
  "source": "patent US20060204443A1",
  "about": "“Methods for tumor treatment using dendrimer conjugates” (The Government of the USA as represented by the Secretary …, priority 2005, published 2006)",
  "key": {"[1]": {"test_system": "axillary lymph nodes and their lymphatic vessels", "experiment": "Dynamic 3D-MR lymphangiography, effect of contrast agent size (Example 4)", "assay_type": "in vivo, athymic nu/nu mice", "settings": "triple dose, 3 min post-injection (data not shown)"}, "[2]": {"test_system": "deep lymphatic system (lymph nodes, thoracic duct)", "experiment": "Whole-body dynamic 3D-micro-MRL after intracutaneous injection, normal mice (Examples 2, 3)", "assay_type": "in vivo", "settings": "for Number of Mice in Which the Thoracic Duct was Visualized/Number of Mice Examined: Normal Mice, 0.1 μmolGd intracutaneously", "description": "The mice were anesthetized with 1.15 mg sodium pentobarbital (Dainabot, Osaka, Japan) by intraperitoneal injection, and then injected intracutaneously with 0.1 μmolGd of PAMAM-G8, DAB-G5, PAMAM-G4, Gadomer-17, or GPDM into four middle phalanges in all four extremities. Dynamic micro-MR images were obtained using a 1.5-Tesla superconductive magnet unit (Signa LX, General Electric Medical System, Milwaukee, Wis.) with a round birdcage type coil of 3 cm diameter fixed by a custom-made coil holder. Four to eight female mice (7 weeks old, 18-21 g body weight) in each group were used and each contrast agent was prepared at least three separate times for these imaging studies. The mice were wrapped with gauze to stabilize their body temperature and were placed at the center of the coils.\nA 3D-fast spoiled gradient echo (3D-fastSPGR (efgre3d package; Signa Horizon, GE); repetition time/echo time 28.5/7.9 msec; inversion time 65 msec; 31.2 kHz, flip angle 30°, four excitations; 40 slice-encoding steps; scan time 7 min 36 seconds) with chemical shift fat-suppression was used 10, 20, 30, and 45 min after injection of the contrast agents. The coronal images were reconstructed with 0.6-mm section thickness at every 0.3-mm. The field of view was 6×3 cm and the size of the matrix was 512×256. The intensities of the regions of interest (for example, a whole axillary lymph node, and the liver) were measured, and then the time-intensity curves analyzed. The data were expressed as the axillary lymph node-to-muscle and the axillary lymph node-to-liver ratios. The slice data were processed into 3D images using the MIP method with the same window and level (window 3500 and level 2300) (Advantage Windows, General Electric Medical System). Two board-certified radiologists separately read a set of stereo views of 3D-MRL for all studies, and estimated the visualization of the thoracic duct. After imaging, the mice were sacrificed by carbon dioxide inhalation.\nIn this example, the PAMAM-G8 contrast agent is compared to GPDM. PAMAM-G8 was prepared as described in Example 2, and GPDM was purchased (Schering AG, Berlin, Germany). Animal models, administration of the contrast agents, and 3D-micro-MRL were as described in Example 2."}, "[3]": {"test_system": "axillary lymph nodes and their lymphatic vessels", "experiment": "Dynamic 3D-MR lymphangiography, effect of contrast agent size (Example 4)", "assay_type": "in vivo, athymic nu/nu mice", "description": "Mice were anesthetized with 1.15 mg sodium pentobarbital (Dainabot, Osaka, Japan) by intraperitoneal injection. Then 0.15 μmolGd/5 μL of all nano-size contrast agents or 0.45 μmolGd/5 μL of Gd-[DTPA]-dimeglumine were injected into normal mammary glands or mammary tissue surrounding a tumor. Dynamic MR images were obtained using a 1.5-Tesla superconductive magnet unit (Signa LX, General Electric Medical System, Milwaukee, Wis.) with a birdcage type coil of 3 cm diameter fixed by a custom-made coil holder. The mice were wrapped with gauze to conserve their body temperature and were placed at the center of the coils.\nIn order to evaluate the effect of contrast agent molecular size on the ability to visualize the lymphatics and lymph nodes of athymic nu/nu mice, thirty five non-tumor bearing nu/nu mice were divided into seven groups (n=5). The mice were evaluated with 3D-fast spoiled gradient echo (3D-fastSPGR (efgre3d package; Signa Horizon, GE); repetition time/echo time 19.2/7.2 msec; inversion time 47 msec; bandwidth 31.2 kHz, flip angle 30°, 4 excitations; 36 slice encoding steps; scan time 4 minutes 49 seconds) with chemical shift fat-suppression at 6, 12, 18, 24, 30, and 36 minutes post-injection of each contrast agent. The coronal images were reconstructed with 0.6-mm section thickness every 0.3-mm. The field of view was 8×4 cm and the size of the matrix was 512×256. The slice data were processed into 3D images using the maximum intensity projection (MIP) method with the same window and level (window 3500 and level 2100) (Advantage Windows, General Electric Medical System). The enhancement ratio was calculated by taking the average signal intensity in the axillary lymph node and dividing it by the signal intensity in the adjacent muscle."}, "[4]": {"settings": "Tokumitsu et al. 2000; cited from earlier work"}, "[5]": {"test_system": "Draining Lymph Nodes (LNs) from the Normal Breast Tissue", "experiment": "Dynamic micro-MR mammo-lymphangiography after injection into normal mammary gland (Example 1)", "assay_type": "in vivo, mice", "settings": "athymic nu/nu mice, 0.15 μmol Gd into the mammary gland; GPDM imaged at 12, 24, 36 min, then PAMAM-G6", "description": "Mice were anesthetized with 1.15 mg sodium pentobarbital (Dainabot, Osaka, Japan), and then injected with 0.15-0.24 μmol Gd/5-8 μL of the PAMAM-G6 contrast agent into normal mammary glands or mammary tissue surrounding a tumor (peritumorally). Dynamic micro-MR images were obtained using a 1.5-Tesla superconductive magnet unit (Signa LX, General Electric Medical System, Milwaukee, Wis.) with a birdcage type coil of 3 cm diameter fixed by a custom made coil holder. Single and double “breast coils” used for imaging breasts in humans are commercially available, for example, from GE Medical Systems (Milwaukee, Wis.) and are routinely available in outpatient MRI centers. The mice were wrapped with gauze to stabilize their body temperature and were placed at the center of the coils.\nIn order to evaluate the lymphatic drainage from the normal mammary gland of either Balb/c mice (n=5) or athymic nu/nu mice (n=5), 3D-fast spoiled gradient echo (3D-fastSPGR (efgre3d package; Signa Horizon, GE); repetition time/echo time 19.2/7.2 msec; inversion time 47 msec; 31.2 kHz, flip angle 30°, 4 excitations; 36 slice encoding steps; scan time 4 min 49 seconds) with chemical shift fat-suppression was used 6, 12, 18, 24, 30, 36, 42, and 48 min after injection of the contrast agent. The coronal images were reconstructed with 0.6-mm section thickness every 0.3-mm. The field of view was 8×4 cm and the size of the matrix was 512×256. The slice data were processed into 3D images using the maximum intensity projection (MIP) method with the same window and level (window 3500 and level 2100) (Advantage Windows, General Electric Medical System). After imaging, the mice were sacrificed by carbon dioxide inhalation.\nAthymic nu/nu mice (n=4) were anesthetized and injected with 0.15 μmol Gd of GPDM into the mammary gland, and images were taken 12, 24, and 36 min after injection. Following these three images, these mice were subsequently injected with 0.15 μmol Gd of PAMAM-G6 contrast agent in the mammary gland, and images were taken at 12 and 24 min post-injection of the PAMAM-G6 contrast agent (at 48 and 60 min post-injection of GPDM)."}, "[6]": {"settings": "mouse, in vivo, listed as Gd-DTPA"}},
  "note": "“Also recorded” adds a separate entry of the source.",
  "data": [
    {"smiles": "CNC[C@H](O)[C@@H](O)[C@H](O)[C@H](O)CO.CNC[C@H](O)[C@@H](O)[C@H](O)[C@H](O)CO.O=C([O-])CN(CCN(CC(=O)[O-])CC(=O)O)CCN(CC(=O)[O-])CC(=O)O.[Gd+3]", "note": "[GPDM, gadopentetate dimeglumine, reference compound]", "values": [
      {"measurement": "Contrast between target lymph node and surrounding tissue", "setting": "[1]", "value": "did not help to achieve good enough contrast"},
      {"measurement": "Image enhancement after 45 minutes", "setting": "[2]; Example 2, FIG. 10B", "value": "Virtually no image enhancement"},
      {"measurement": "Visualization of deep lymph nodes", "setting": "[2]; Example 2, normal mice, 10-45 min after injection", "value": "did not allow most of the lymph nodes to be visualized even at early times"},
      {"measurement": "Visualization of deep lymph nodes", "setting": "[2]; Example 3, FIG. 15", "value": "not with GPDM"},
      {"measurement": "Number of Mice in Which the Thoracic Duct was Visualized/Number of Mice Examined", "setting": "[2]; 10 min", "value": "2/5"},
      {"measurement": "Number of Mice in Which the Thoracic Duct was Visualized/Number of Mice Examined", "setting": "[2]; 20 min", "value": "0/5"},
      {"measurement": "Number of Mice in Which the Thoracic Duct was Visualized/Number of Mice Examined", "setting": "[2]; 30 min", "value": "0/5"},
      {"measurement": "Number of Mice in Which the Thoracic Duct was Visualized/Number of Mice Examined", "setting": "[2]; 45 min", "value": "0/5"},
      {"measurement": "Visualization of axillary lymph nodes and their lymphatic vessels", "setting": "[3]; 6-36 minutes post-injection into mammary gland", "value": "failed to opacify either the lymph nodes or the lymphatic vessels"},
      {"measurement": "Signal intensity of adjacent muscle in comparison to G6 and G8", "setting": "[3]; [6]", "value": "significantly higher than those measured with G6 and G8; also recorded: higher signal in the adjacent muscle"},
      {"measurement": "Signal intensity within the axillary lymph nodes in comparison to G6 and G8", "setting": "[3]; [6]", "value": "lower signal intensities; also recorded: significantly lower signal"},
      {"measurement": "Clearance from the body", "setting": "[4]", "value": "clear too rapidly from the body"},
      {"measurement": "Visualization of draining lymph nodes and lymphatic vessels (FIG. 5)", "setting": "[5]", "value": "not well visualized"}
    ]}
  ]
}
